# According to ChEMBL document CHEMBL1138703, “Allosteric potentiators of the metabotropic glutamate receptor 2 (mGlu2). Part 2: 4-thiopyridyl acetophenones as non-tetrazole containing mGlu2 receptor potentiators” (Bioorg Med Chem Lett, 2004):
# Columns and labels:
# [1] = target: T1, Metabotropic glutamate receptor 2 (Homo sapiens, UniProt Q14416); assay: Binding affinity towards human metabotropic glutamate receptor 2 determined by [35S]GTP gamma S binding assay; format: functional
# Target sequence in this assay (Q14416 whole entry): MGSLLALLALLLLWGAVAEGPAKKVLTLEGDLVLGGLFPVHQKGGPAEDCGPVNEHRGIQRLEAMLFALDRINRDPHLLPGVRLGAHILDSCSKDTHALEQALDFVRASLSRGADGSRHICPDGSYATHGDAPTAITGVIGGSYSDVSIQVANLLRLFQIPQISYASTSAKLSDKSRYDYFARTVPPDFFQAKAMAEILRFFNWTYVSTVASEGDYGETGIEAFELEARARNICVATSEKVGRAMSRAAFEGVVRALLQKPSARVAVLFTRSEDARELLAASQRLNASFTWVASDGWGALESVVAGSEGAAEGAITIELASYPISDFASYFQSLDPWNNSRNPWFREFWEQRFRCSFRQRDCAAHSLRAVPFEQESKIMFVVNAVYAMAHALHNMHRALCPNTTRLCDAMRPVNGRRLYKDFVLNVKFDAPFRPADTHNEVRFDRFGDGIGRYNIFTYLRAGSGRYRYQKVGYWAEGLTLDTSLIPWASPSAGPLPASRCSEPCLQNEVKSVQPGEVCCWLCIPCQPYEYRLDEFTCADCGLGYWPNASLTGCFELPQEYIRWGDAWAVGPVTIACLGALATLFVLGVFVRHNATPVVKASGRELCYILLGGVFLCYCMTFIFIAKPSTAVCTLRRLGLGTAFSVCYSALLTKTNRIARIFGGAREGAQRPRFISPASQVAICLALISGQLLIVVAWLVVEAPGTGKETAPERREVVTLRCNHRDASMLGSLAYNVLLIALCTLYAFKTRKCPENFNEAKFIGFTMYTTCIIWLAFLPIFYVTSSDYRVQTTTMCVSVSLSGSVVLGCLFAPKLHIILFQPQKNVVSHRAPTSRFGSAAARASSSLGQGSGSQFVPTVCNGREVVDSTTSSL
# [2] = Total clearance in rat plasma upon administration at 2 mpk iv or 10 mpk po; format: ADME, organism-based; conditions: 2 mg/kg
# [3] = target: T1, Metabotropic glutamate receptor 2; assay: Potentiation as percent of maximum glutamate response at 1 mM
# Target sequence in this assay (Q14416 19-872 limits assumed): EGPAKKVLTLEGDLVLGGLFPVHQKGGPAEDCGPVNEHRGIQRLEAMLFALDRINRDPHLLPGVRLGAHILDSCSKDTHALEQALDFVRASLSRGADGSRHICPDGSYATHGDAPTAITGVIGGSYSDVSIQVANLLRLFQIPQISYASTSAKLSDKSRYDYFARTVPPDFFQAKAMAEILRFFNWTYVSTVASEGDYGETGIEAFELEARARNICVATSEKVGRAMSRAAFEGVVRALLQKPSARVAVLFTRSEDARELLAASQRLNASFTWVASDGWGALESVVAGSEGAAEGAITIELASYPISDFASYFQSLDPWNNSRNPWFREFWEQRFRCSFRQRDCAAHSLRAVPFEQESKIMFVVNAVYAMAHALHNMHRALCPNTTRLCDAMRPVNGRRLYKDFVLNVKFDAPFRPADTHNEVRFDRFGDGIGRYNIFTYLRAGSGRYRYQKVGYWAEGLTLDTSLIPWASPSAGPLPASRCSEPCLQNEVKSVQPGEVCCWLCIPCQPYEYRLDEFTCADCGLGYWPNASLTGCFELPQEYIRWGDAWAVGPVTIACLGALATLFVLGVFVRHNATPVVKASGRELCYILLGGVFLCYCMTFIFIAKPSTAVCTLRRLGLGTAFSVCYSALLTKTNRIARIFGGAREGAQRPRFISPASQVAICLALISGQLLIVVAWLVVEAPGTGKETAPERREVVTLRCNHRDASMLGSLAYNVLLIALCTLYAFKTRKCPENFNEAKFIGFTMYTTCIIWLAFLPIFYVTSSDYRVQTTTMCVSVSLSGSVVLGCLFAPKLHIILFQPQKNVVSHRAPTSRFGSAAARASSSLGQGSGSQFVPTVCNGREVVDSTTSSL
# [4] = Bioavailability in rat (dose 2 mg/kg i.v. and 10 mg/kg p.o.); format: ADME, organism-based; conditions: in vivo, po
# [5] = Ratio of brain to plasma levels was determined upon administration at 20 mpk intraperitoneally after 2 h; format: ADME; conditions: rat, brain and plasma, ip, 20 mg/kg
# [6] = Compound level in rat brain was determined upon administration at 2 mpk iv or 10 mpk po; format: ADME, organism-based; conditions: in vivo, read-out: Concentration in Brain
# [7] = target: T1, Metabotropic glutamate receptor 2; assay: Binding affinity for human metabotropic glutamate receptor 2 in [35S]GTP gamma S binding assay; not active at < 10 uM; format: functional
# Target sequence in this assay (Q14416 whole entry): as the sequence (Q14416 whole entry) above
EC50 [1],clearance [2],Potentiation [3],bioavailability [4],Kp at 2 h [5],concentration [6],EC50 [7],Structure (SMILES)
558 nM,75 mL/min/kg,88%,0%,,,,CC(C)CC(=O)c1ccc(OCCCCOc2cccc(F)c2F)c(Br)c1O
578 nM,,79%,,0.21,340 nM,,Cc1c(OCc2ccc(Sc3ccncc3)cc2)ccc(C(=O)CC(C)(C)C)c1O
,15 mL/min/kg,,59%,0.03,,,Cc1c(OCCCCOc2ccc(-c3nn[nH]n3)cc2)ccc(C(=O)CC(C)C)c1O
575 nM,,67%,,,,,CC(C)CC(=O)c1ccc(OCCCCOc2cccnc2)c(Br)c1O
890 nM,,58%,,,,,Cc1c(OCc2cccc(Sc3ccncc3)c2)ccc(C(=O)CC(C)C)c1O
819 nM,,68%,,1.2,330 nM,,Cc1c(OCc2cccc(CSc3ccncc3)c2)ccc(C(=O)CC(C)C)c1O
3270 nM,,33%,,,,,Cc1c(OCCCCOc2ccccn2)ccc(C(=O)CC(C)C)c1O
384 nM,,18%,,,,,Cc1c(OCCCCOc2cccc(F)c2F)ccc(C(=O)CC(C)C)c1O
677 nM,,38%,,,,,Cc1c(OCc2ccccc2Sc2ccncc2)ccc(C(=O)CC(C)C)c1O
1530 nM,,21%,,,,,Cc1c(OCCCCSc2ccccn2)ccc(C(=O)CC(C)C)c1O
1060 nM,,38%,,,,,Cc1c(OCc2ccc(Sc3ccncc3)cc2)ccc(C(=O)CC(C)C)c1O
676 nM,,82%,,,,,CC(C)CC(=O)c1ccc(OCCCCSc2ccncc2)c(Br)c1O
1500 nM,,53%,,,,,CC(C)CC(=O)c1ccc(OCCCCOc2ccccc2)c(Br)c1O
4550 nM,,24%,,,,,Cc1c(OCCCCOc2ccccc2)ccc(C(=O)CC(C)C)c1O
770 nM,,78%,,,,,Cc1c(OCc2ccc(CSc3ccncc3)cc2)ccc(C(=O)CC(C)C)c1O
,70 mL/min/kg,,< 1%,0.15,10 nM,,COc1ccccc1Oc1ccc(N(Cc2cccnc2)S(=O)(=O)CC(F)(F)F)cc1
1090 nM,,26%,,,,,Cc1c(OCCCCSc2cccnc2)ccc(C(=O)CC(C)C)c1O
,33 mL/min/kg,,63%,0.01,,,CCCc1c(OCCCCOc2ccc(-c3nnn[nH]3)cc2)ccc(C(C)=O)c1O
,,,,,,Not Active,Cc1c(OCCCSc2ccncc2)ccc(C(=O)CC(C)C)c1O
340 nM,33 mL/min/kg,33%,3%,1.1,400 nM,,Cc1c(OCCCCSc2ccncc2)ccc(C(=O)CC(C)C)c1O
,,,,,,Not Active,Cc1c(OCCCCCSc2ccncc2)ccc(C(=O)CC(C)C)c1O
4240 nM,,18%,,,,,Cc1c(OCCCCOc2ccc(-n3cncn3)cc2)ccc(C(=O)CC(C)C)c1O
3850 nM,,40%,,,,,Cc1c(OCCCCOc2ccncc2)ccc(C(=O)CC(C)C)c1O
1990 nM,,30%,,,,,Cc1c(OCCCCOc2ccccc2F)ccc(C(=O)CC(C)C)c1O
1720 nM,,46%,,,,,Cc1c(OCCCCOc2cccnc2)ccc(C(=O)CC(C)C)c1O
